Where two headings read alike, the source gives them in different places. One block for each compound: values may come before it.
Columns and labels:
Assay type in all cases: biochemical
CDK2/CCNE1 = CDK2/CCNE1 (Homo sapiens, UniProt P24941); test: CDK2 homogeneous time-resolved fluorescence (HTRF) kinase assay; conditions: CDK2/CCNE
Procedure, shortened: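 3 nM CDK2/CCNE1 was preincubated with compound for 20 min at 23 °C in HEPES buffer (pH not stated), then reacted 60 min with 1 mM ATP and 50 nM ULight-4E-BP1 (Thr37/46) peptide. After EDTA stop, Eu-anti-phospho-4E-BP1 antibody (2 nM) was added for 60 min and TR-FRET read at 665 nm.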

CDK6/CCND1 = CDK6/CCND1 (Homo sapiens, UniProt Q00534); test: CDK6 homogeneous time-resolved fluorescence (HTRF) kinase assay; conditions: CDK6/CCND
CDK6/CCND1, sequence (Q00534 whole entry): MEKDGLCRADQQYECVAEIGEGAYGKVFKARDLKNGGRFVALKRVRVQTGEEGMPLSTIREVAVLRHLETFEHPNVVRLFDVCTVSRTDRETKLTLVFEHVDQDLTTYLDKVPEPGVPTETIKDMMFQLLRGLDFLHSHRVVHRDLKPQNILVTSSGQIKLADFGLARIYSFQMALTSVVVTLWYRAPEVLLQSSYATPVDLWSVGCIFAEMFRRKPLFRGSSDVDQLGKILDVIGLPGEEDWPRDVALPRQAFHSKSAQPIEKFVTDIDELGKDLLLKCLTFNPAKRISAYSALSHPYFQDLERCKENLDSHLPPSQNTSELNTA
CDK6/CCND1, sequence (P24385 whole entry partner): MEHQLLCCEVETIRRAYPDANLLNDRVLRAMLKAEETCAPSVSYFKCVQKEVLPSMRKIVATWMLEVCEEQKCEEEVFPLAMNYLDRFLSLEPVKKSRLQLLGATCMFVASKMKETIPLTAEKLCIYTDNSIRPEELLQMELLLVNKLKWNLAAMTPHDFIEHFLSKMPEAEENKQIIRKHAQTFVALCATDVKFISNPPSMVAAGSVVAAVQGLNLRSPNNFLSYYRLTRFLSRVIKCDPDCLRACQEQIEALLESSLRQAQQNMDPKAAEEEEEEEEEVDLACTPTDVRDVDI
Procedure, shortened: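 1 nM enzyme, 1 mM ATP, 50 nM ULight-4E-BP1 (Thr37/46) peptide, 1% DMSO; 20 min compound preincubation, 60 min reaction, 23 °C. EDTA stop, 2 nM Eu-anti-phospho-4E-BP1 antibody 60 min. TR-FRET 665 nm (or 665/615 ratio); IC50 from 11-point half-log titration, top 10 μM.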

CDK4/CCND3 = CDK4/CCND3 (Homo sapiens, UniProt P11802); test: CDK4 homogeneous time-resolved fluorescence (HTRF) kinase assay; conditions: CDK4/CCND
CDK4/CCND3, sequence (P11802 whole entry): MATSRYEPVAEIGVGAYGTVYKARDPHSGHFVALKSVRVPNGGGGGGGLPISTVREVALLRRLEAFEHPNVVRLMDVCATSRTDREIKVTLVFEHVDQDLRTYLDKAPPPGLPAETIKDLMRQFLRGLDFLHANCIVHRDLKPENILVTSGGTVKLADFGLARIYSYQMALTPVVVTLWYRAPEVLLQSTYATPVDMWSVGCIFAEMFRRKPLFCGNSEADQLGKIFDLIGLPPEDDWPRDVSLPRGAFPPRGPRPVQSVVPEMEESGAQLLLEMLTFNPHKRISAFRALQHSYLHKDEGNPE
CDK4/CCND3, sequence (P30281 whole entry partner): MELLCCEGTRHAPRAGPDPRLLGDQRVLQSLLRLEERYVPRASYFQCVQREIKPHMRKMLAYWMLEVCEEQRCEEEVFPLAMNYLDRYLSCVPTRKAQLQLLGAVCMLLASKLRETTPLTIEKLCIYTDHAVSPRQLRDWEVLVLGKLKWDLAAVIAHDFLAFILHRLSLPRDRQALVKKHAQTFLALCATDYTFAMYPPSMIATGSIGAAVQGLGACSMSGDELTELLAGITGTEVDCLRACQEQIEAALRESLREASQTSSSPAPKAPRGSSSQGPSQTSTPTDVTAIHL
Procedure, shortened: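 Compounds were preincubated with 1.5 nM CDK4/CCND3 for 20 min at 23 °C in HEPES buffer (pH not given), then reacted 60 min with 1 mM ATP and 50 nM ULight-4E-BP1 (Thr37/46) peptide. EDTA stop, Eu-anti-phospho-4E-BP1 detection; 665/615 nm ratio; IC50 from 11-point half-log titrations from 10 μM.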

CDK1/CCNB1 = CDK1/CCNB1 (Homo sapiens, UniProt P06493); test: CDK1 homogeneous time-resolved fluorescence (HTRF) kinase assay; conditions: CDK1/CCNB
CDK1/CCNB1, sequence (P06493 whole entry): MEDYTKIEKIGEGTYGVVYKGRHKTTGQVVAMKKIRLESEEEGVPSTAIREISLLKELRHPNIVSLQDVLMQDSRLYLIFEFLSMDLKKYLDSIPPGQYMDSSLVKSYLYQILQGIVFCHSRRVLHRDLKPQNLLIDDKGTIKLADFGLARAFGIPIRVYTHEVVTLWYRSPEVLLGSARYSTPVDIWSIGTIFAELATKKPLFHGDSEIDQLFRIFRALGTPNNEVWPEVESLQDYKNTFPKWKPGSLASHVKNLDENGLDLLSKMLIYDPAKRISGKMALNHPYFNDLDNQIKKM
CDK1/CCNB1, sequence (P14635 whole entry partner): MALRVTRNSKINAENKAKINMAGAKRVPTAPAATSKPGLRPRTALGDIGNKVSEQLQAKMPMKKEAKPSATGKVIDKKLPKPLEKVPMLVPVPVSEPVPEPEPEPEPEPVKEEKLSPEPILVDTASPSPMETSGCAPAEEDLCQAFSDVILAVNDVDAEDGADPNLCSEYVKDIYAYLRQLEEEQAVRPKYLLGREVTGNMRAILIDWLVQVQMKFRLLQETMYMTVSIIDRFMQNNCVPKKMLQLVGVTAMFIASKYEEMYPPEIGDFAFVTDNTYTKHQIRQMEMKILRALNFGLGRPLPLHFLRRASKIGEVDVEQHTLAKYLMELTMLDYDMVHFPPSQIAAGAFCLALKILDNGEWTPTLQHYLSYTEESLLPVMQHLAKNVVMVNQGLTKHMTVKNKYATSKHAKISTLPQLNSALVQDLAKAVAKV
Procedure, shortened: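 Compounds, titrated 11 points in half-log steps typically from 10 μM, were incubated with enzyme for 20 min before ATP (1 mM) and ULight-labelled eIF4E-binding protein 1 peptide (50 nM) started a 60-min reaction at 23 °C. Phosphopeptide was detected by europium-antibody TR-FRET and IC50 values were derived.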

[1] = >250 nM, 1 mM ATP, read-out: CDK6/CCND IC50, >250 nM
[2] = >250 nM, read-out: CDK4/CCND IC50, >250 nM
[3] = >250 nM, read-out: CDK1/CCNB IC50 >250 nM
[4] = <25 nM, read-out: CDK2/CCNE IC50, <25 nM
[5] = 25-250 nM, 1 mM ATP, read-out: CDK6/CCND IC50, 25-250 nM
[6] = x = IC50 <25 nM, read-out: CDK2/CCNE IC50 (<25 nM)
[7] = x = IC50 >250 nM, read-out: CDK6/CCND IC50 (>250 nM column)
[8] = x = IC50 >250 nM, read-out: CDK4/CCND IC50 (>250 nM column)
[9] = x = IC50 >250 nM, read-out: CDK1/CCNB IC50 (>250 nM column)
[10] = 25-250 nM marked x, read-out: CDK4/CCND IC50 25-250 nM
[11] = >250 nM marked x, read-out: CDK1/CCNB IC50 >250 nM
[12] = 25-250 nM, read-out: CDK4/CCND IC50, 25-250 nM
[13] = 25-250 nM, read-out: CDK1/CCNB IC50, 25-250 nM
[14] = x = IC50 25-250 nM, read-out: CDK1/CCNB IC50 (25-250 nM)
[15] = <25 nM, read-out: CDK2/CCNE IC50 <25 nM
[16] = <25 nM, read-out: CDK6/CCND IC50 <25 nM
[17] = <25 nM, read-out: CDK4/CCND IC50 <25 nM
[18] = 25-250 nM marked x, read-out: CDK1/CCNB IC50 25-250 nM

SMILES: CN(C)C/C=C/S(=O)(=O)c1ccc(Nc2cc3c(N4CCC(C#N)CC4)nccc3cn2)cc1 [Ex 249, (E)-1-(7-((4-((3-(dimethylamino)prop-1-en-1-yl)sulfonyl)phenyl)amino)-2,6-naphthyridin-1-yl)piperidine-4-carbonitrile]
IC50 (CDK2/CCNE1; >250 nM marked x, read-out: CDK2/CCNE IC50 >250 nM): > 250 nM | IC50 (CDK6/CCND1; >250 nM marked x, read-out: CDK6/CCND IC50 >250 nM): > 250 nM | IC50 (CDK4/CCND3; [10]): 25 to 250 nM | IC50 (CDK1/CCNB1; [11]): > 250 nM

SMILES: Cc1c(-c2nccc3cnc(Nc4ccc(NS(C)(=O)=O)cc4)cc23)ccc2c1cnn2CC(C)(C)O [Ex 938, N-(4-((5-(1-(2-hydroxy-2-methylpropyl)-4-methyl-1H-indazol-5-yl)-2,6-naphthyridin-3-yl)amino)phenyl)methanesulfonamide]
IC50 (CDK2/CCNE1; [4]): < 25 nM | IC50 (CDK6/CCND1; [5]): 25 to 250 nM | IC50 (CDK4/CCND3; [12]): 25 to 250 nM | IC50 (CDK1/CCNB1; [13]): 25 to 250 nM

SMILES: Cc1cnc(NS(=O)(=O)c2ccc(Nc3cc4c(-c5ccc6c(cnn6CC(O)(C(F)(F)F)C(F)(F)F)c5C)nccc4cn3)cc2)cc1N1CCOCC1 [Ex 701, 4-((5-(4-methyl-1-(3,3,3-trifluoro-2-hydroxy-2-(trifluoromethyl)propyl)-1H-indazol-5-yl)-2,6-naphthyridin-3-yl)amino)-N-(5-methyl-4-morpholinopyridin-2-yl)benzenesulfonamide]
IC50 (CDK2/CCNE1; [4]): < 25 nM | IC50 (CDK6/CCND1; [1]): > 250 nM | IC50 (CDK4/CCND3; [2]): > 250 nM | IC50 (CDK1/CCNB1; [3]): > 250 nM

SMILES: CS(=O)(=O)N1CCC(Nc2cc3c(-c4cccc(CO)c4)nccc3cn2)CC1 [Ex 64, (3-(7-((1-(methylsulfonyl)piperidin-4-yl)amino)-2,6-naphthyridin-1-yl)phenyl)methanol]
IC50 (CDK2/CCNE1; [15]): < 25 nM | IC50 (CDK6/CCND1; [16]): < 25 nM | IC50 (CDK4/CCND3; [17]): < 25 nM | IC50 (CDK1/CCNB1; [18]): 25 to 250 nM

SMILES: CS(=O)(=O)N1CCC(Nc2cc3c(N4CCCCC4)nccc3cn2)CC1 [Ex 27, N-(1-(methylsulfonyl)piperidin-4-yl)-5-(piperidin-1-yl)-2,6-naphthyridin-3-amine]
IC50 (CDK2/CCNE1; [15]): < 25 nM | IC50 (CDK6/CCND1; [16]): < 25 nM | IC50 (CDK4/CCND3; [17]): < 25 nM | IC50 (CDK1/CCNB1; [18]): 25 to 250 nM

SMILES: CS(=O)(=O)N1CCC(Nc2cc3c(-c4cccc(C#N)c4)nccc3cn2)CC1 [Ex 75, 3-(7-((1-(methylsulfonyl)piperidin-4-yl)amino)-2,6-naphthyridin-1-yl)benzonitrile]
IC50 (CDK2/CCNE1; [15]): < 25 nM | IC50 (CDK6/CCND1; 25-250 nM marked x, read-out: CDK6/CCND IC50 25-250 nM): 25 to 250 nM | IC50 (CDK4/CCND3; [10]): 25 to 250 nM | IC50 (CDK1/CCNB1; [11]): > 250 nM

SMILES: Cc1c(-c2nccc3cnc(Nc4ccc(S(=O)(=O)NC5CCOCC5)cc4)cc23)ccc2c1cnn2CC(C)(C)O [Ex 793, 4-((5-(1-(2-hydroxy-2-methylpropyl)-4-methyl-1H-indazol-5-yl)-2,6-naphthyridin-3-yl)amino)-N-(tetrahydro-2H-pyran-4-yl)benzenesulfonamide]
IC50 (CDK2/CCNE1; [4]): < 25 nM | IC50 (CDK6/CCND1; [5]): 25 to 250 nM | IC50 (CDK4/CCND3; [12]): 25 to 250 nM | IC50 (CDK1/CCNB1; [3]): > 250 nM

Results, then the compound that gave them:

IC50 (CDK2/CCNE1; 25-250 nM, read-out: CDK2/CCNE IC50, 25-250 nM): 25 to 250 nM | IC50 (CDK6/CCND1; [1]): > 250 nM | IC50 (CDK4/CCND3; [2]): > 250 nM | IC50 (CDK1/CCNB1; [3]): > 250 nM
SMILES: CC#Cc1nccc2cnc(Nc3ccc(S(=O)(=O)Nc4nccc(N5CCOCC5)n4)cc3)cc12 [Ex 878, N-(4-morpholinopyrimidin-2-yl)-4-((5-(prop-1-yn-1-yl)-2,6-naphthyridin-3-yl)amino)benzenesulfonamide]

IC50 (CDK2/CCNE1; [4]): < 25 nM | IC50 (CDK6/CCND1; [5]): 25 to 250 nM | IC50 (CDK4/CCND3; [2]): > 250 nM | IC50 (CDK1/CCNB1; [3]): > 250 nM
SMILES: CCN(c1ncccn1)S(=O)(=O)c1ccc(Nc2cc3c(-c4ccc5c(cnn5CC(C)(C)O)c4C)nccc3cn2)cc1 [Example 733, N-ethyl-4-((5-(1-(2-hydroxy-2-methylpropyl)-4-methyl-1H-indazol-5-yl)-2,6-naphthyridin-3-yl)amino)-N-(pyrimidin-2-yl)benzenesulfonamide]

IC50 (CDK2/CCNE1; [6]): < 25 nM | IC50 (CDK6/CCND1; [7]): > 250 nM | IC50 (CDK4/CCND3; [8]): > 250 nM | IC50 (CDK1/CCNB1; [9]): > 250 nM
SMILES: CS(=O)(=O)c1ccc(Nc2cc3c(C#Cc4ccc5oc(=O)[nH]c5c4)nccc3cn2)cc1 [Ex 518, 5-((7-((4-(methylsulfonyl)phenyl)amino)-2,6-naphthyridin-1-yl)ethynyl)benzo[d]oxazol-2(3H)-one]

IC50 (CDK2/CCNE1; x = IC50 25-250 nM, read-out: CDK2/CCNE IC50 (25-250 nM)): 25 to 250 nM | IC50 (CDK6/CCND1; [7]): > 250 nM | IC50 (CDK4/CCND3; [8]): > 250 nM | IC50 (CDK1/CCNB1; [9]): > 250 nM
SMILES: CS(=O)(=O)c1ccc(Nc2cc3c(C#Cc4cnn5ccccc45)nccc3cn2)cc1 [Ex 478, N-(4-(methylsulfonyl)phenyl)-5-(pyrazolo[1,5-a]pyridin-3-ylethynyl)-2,6-naphthyridin-3-amine]

IC50 (CDK2/CCNE1; [4]): < 25 nM | IC50 (CDK6/CCND1; [1]): > 250 nM | IC50 (CDK4/CCND3; [2]): > 250 nM | IC50 (CDK1/CCNB1; [3]): > 250 nM
SMILES: COc1ccc(S(=O)(=O)Nc2ccc(Nc3cc4c(-c5ccc6c(cnn6CC(C)(C)O)c5C)nccc4cn3)cc2)cn1 [Ex 779, N-(4-((5-(1-(2-hydroxy-2-methylpropyl)-4-methyl-1H-indazol-5-yl)-2,6-naphthyridin-3-yl)amino)phenyl)-6-methoxypyridine-3-sulfonamide]

IC50 (CDK2/CCNE1; x = IC50 >250 nM, read-out: CDK2/CCNE IC50 (>250 nM column)): > 250 nM | IC50 (CDK6/CCND1; [7]): > 250 nM | IC50 (CDK4/CCND3; [8]): > 250 nM | IC50 (CDK1/CCNB1; [9]): > 250 nM
SMILES: Cc1nc(C#Cc2nccc3cnc(Nc4ccc(S(C)(=O)=O)cc4)cc23)sc1C [Ex 540, 5-((4,5-dimethylthiazol-2-yl)ethynyl)-N-(4-(methylsulfonyl)phenyl)-2,6-naphthyridin-3-amine]

IC50 (CDK2/CCNE1; [6]): < 25 nM | IC50 (CDK6/CCND1; [7]): > 250 nM | IC50 (CDK4/CCND3; [8]): > 250 nM | IC50 (CDK1/CCNB1; [14]): 25 to 250 nM
SMILES: Cc1cc(C)nc(NS(=O)(=O)c2ccc(Nc3cc4c(C#Cc5cccnc5N)nccc4cn3)cc2)n1 [Example 471, 4-((5-((2-aminopyridin-3-yl)ethynyl)-2,6-naphthyridin-3-yl)amino)-N-(4,6-dimethylpyrimidin-2-yl)benzenesulfonamide]

IC50 (CDK2/CCNE1; [4]): < 25 nM | IC50 (CDK6/CCND1; [5]): 25 to 250 nM | IC50 (CDK4/CCND3; [12]): 25 to 250 nM | IC50 (CDK1/CCNB1; [3]): > 250 nM
SMILES: Cc1cccc(NS(=O)(=O)c2ccc(Nc3cc4c(-c5ccc6c(cnn6CC(C)(C)O)c5C)nccc4cn3)cc2)n1 [Ex 817, 4-((5-(1-(2-hydroxy-2-methylpropyl)-4-methyl-1H-indazol-5-yl)-2,6-naphthyridin-3-yl)amino)-N-(6-methylpyridin-2-yl)benzenesulfonamide]

IC50 (CDK2/CCNE1; [4]): < 25 nM | IC50 (CDK6/CCND1; [5]): 25 to 250 nM | IC50 (CDK4/CCND3; [12]): 25 to 250 nM | IC50 (CDK1/CCNB1; [13]): 25 to 250 nM
SMILES: CC1(C)C(=O)Nc2cc(C#Cc3nccc4cnc(Nc5ccc([S@@](=N)(=O)NC6CCC6)cc5)cc34)ccc21 [Example 687, (S)-N-cyclobutyl-4-((5-((3,3-dimethyl-2-oxoindolin-6-yl)ethynyl)-2,6-naphthyridin-3-yl)amino)benzenesulfonimidamide]

IC50 (CDK2/CCNE1; [6]): < 25 nM | IC50 (CDK6/CCND1; x = IC50 25-250 nM, read-out: CDK6/CCND IC50 (25-250 nM)): 25 to 250 nM | IC50 (CDK4/CCND3; x = IC50 25-250 nM, read-out: CDK4/CCND IC50 (25-250 nM)): 25 to 250 nM | IC50 (CDK1/CCNB1; [14]): 25 to 250 nM
SMILES: CCS(=N)(=O)c1ccc(Nc2cc3c(C#Cc4ccc5c(c4)NC(=O)C54CCC4)nccc3cn2)cc1 (single isomer, unassigned) [Ex 366, 6'-((7-((4-(ethylsulfonimidoyl)phenyl)amino)-2,6-naphthyridin-1-yl)ethynyl)spiro[cyclobutane-1,3'-indolin]-2'-one]
